The record followed here is US5691334A, “Pyrrolydenemethyl-derivatives and process for their preparation” (Pharmacia & Upjohn S.p.A., priority 1993, dated 1997).

Structures can show the parent of a compound that is named as a salt. Where two headings read alike, the source gives them in different places.

The subject of test [1] is tumor cell lines (human erythroleukemia K562, murine melanoma B16). The experiment in a line: Tumor cell growth (test 3: proliferation of human erythroleukemia K562, murine melanoma B16; MTT). Format: cell-based. To be noted: read-out: IC50 tumor cell growth (upper and lower limits).
Procedure: Proliferation of tumor cell lines (human erythroleukemia K562, murine melanoma B16).
Test 3 allows to investigate the inhibitory effect of the present compounds on a generic proliferation pathway, independent from immune-specific growth factors.
Tumor cells were collected in the logarithmic phase of growth and seeded in triplicate in flat bottomed microculture plates at the concentration of 1×10^4 in the presence or absence of different concentrations of the test compound. After 48 h incubation at 37° C. in 5% CO2, the cell viability was evaluated by the MTT colorimetric method according to Ferrari et al., J. Immunol.
The concentration inhibiting 50% (IC50) of the cell proliferation in the different settings is calculated for the test compounds and the reference standard UP.
Test [2] relates to murine splenocytes. The test can be described thus: Lymphocyte proliferation (tests 1 and 2: murine splenocytes induced by ConA / by irradiated allogenic spleen cells, MLR). Format: cell-based. The conditions noted are these: for IC50: Mus musculus, Splenocyte, read-out: IC50 lymphocyte proliferation (upper and lower limits); for TI (therapeutic index): ratio of mean IC50 on tumor cells growth (test 3) to IC50 on lymphocytes proliferation (tests 1 and 2).
Procedure: Proliferation of murine splenocytes induced by the mitogen Concanavaline A.
Proliferation of murine splenocytes induced by irradiated allogenic murine spleen cells (MLR).
Tests 1 and 2 allow the study of the compounds on proliferation models mediated by T-cell growth factors (e.g. IL-2) and are considered immunologically specific.
Spleens were aseptically removed from C57B1/6 mice and a cell suspension prepared in complete medium. Cell viability was evaluated by trypan blue exclusion.
Spleen cells (4×10^5) were cultured in triplicate in a volume of 0.15 ml, in flat bottomed microculture plates, in the absence or presence of an optimal concentration of ConA (1.7 microgr/ml) and of different concentrations of the test compound. Cultures were incubated for 72 h at 37° C. in a humidified, 5% CO2 incubator; 18 h before termination of the cultures, 0.2 microCi of [methyl-^3 H]thymidine were added to each well. Cells were harvested on glass fiber filters and the [^3 H]TdR uptake (cpm) quantified in a liquid scintillation counter.
Spleens were aseptically removed from C57B1/6 mice (responders) and Balb/c mice (stimulators), and cell suspensions prepared in complete medium. Responder cells (1×10^6) were cocultured in triplicate with irradiated (1500R) stimulator cells (5×10^5) in a volume of 0.15 ml in the presence or absence of different concentrations of the test compound, in flat bottomed microculture plates. Cultures were incubated for 96 h at 37° C. in a humidified, 5% CO2 incubator; the last 18 h in the presence of 0.2 microCi of ^3 H-TdR.
Cells were harvested on glass fiber filter and the ^3 H-TdR uptake (cpm) quantified in a liquid scintillation counter.
The concentration inhibiting 50% (IC50) of the cell proliferation in the different settings is calculated for the test compounds and the reference standard UP. The ratio between the mean IC50 values on tumor cells growth (test 3) and the IC50 on lymphocytes proliferation (measured by test 1 and 2) produces the therapeutic index (TI) of the compounds.

[3] abbreviates: test 3, mean IC50 on tumor cells (K562, B16), 48 h, MTT, limits in parentheses.
Where [4] appears, read: tests 1 and 2, [3H]thymidine uptake, ConA 72 h, MLR 96 h, limits in parentheses.

Take `CCCCCCCCCCCC1=NC(=Cc2[nH]c(-c3ccc[nH]3)cc2OCC)C=C1.Cl` [FCE 28512, 4-ethoxy-5-[(5-undecyl-2H-pyrrol-2-ylidene)methyl]-2,2'-bi-1H-pyrrole, hydrochloride]: in test [1] (K562, 48 h), the IC50 was 0.511 µg/mL. In test [2], the IC50 came to 0.0023 µg/mL and the “TI (therapeutic index)” value is reported as 222.

With `CCCCCCCCCCCCCC1=NC(=Cc2[nH]c(-c3ccc[nH]3)cc2OC)C=C1.Cl` [FCE 28526, 4-methoxy-5-[(5-tridecyl-2H-pyrrol-2-ylidene)methyl]-2,2'-bi-1H-pyrrole, hydrochloride], the IC50 in test [1] (setting [3]) was determined as 0.584 µg/mL; in test [2] (setting [4]), 0.002 µg/mL. Besides, the “TI (therapeutic index)” value in test [2] amounted to 290.

On to `CCCCCCCCCCCCCC1=NC(=Cc2[nH]c(-c3ccc[nH]3)cc2OCC)C=C1.Cl` [FCE 28733, 4-ethoxy-5-[(5-tridecyl-2H-pyrrol-2-ylidene)methyl]-2,2'-bi-1H-pyrrole, hydrochloride], for which the IC50 in test [1] (K562, 48 h) is 0.859 µg/mL; in test [2] it was 0.0051 µg/mL. For the same compound, in test [2], the “TI (therapeutic index)” value was found to be 168.

`CCCCCCCCCCCC1=NC(=Cc2[nH]c(-c3ccc[nH]3)cc2OCCCC)C=C1` [FCE 28789, 4-buthoxy-5-[(5-undecyl-2H-pyrrol-2-ylidene)methyl]-2,2'-bi-1H-pyrrole, hydrochloride]: the IC50 in test [1] (setting [3]) worked out at 0.784 µg/mL; in test [2] (setting [4]) it was 0.0119 µg/mL. For the same compound, in test [2], the “TI (therapeutic index)” value is listed as 66.

In the case of `CCCCCCCCCCCC1=NC(=Cc2[nH]c(-c3ccc[nH]3)cc2OCc2ccccc2)C=C1.Cl` [FCE 29002, 4-benzyloxy-5-[(5-undecyl-2H-pyrrol-2-ylidene)methyl]-2,2'-bi-1H-pyrrole, hydrochloride], the IC50 turned out to be 5.8 µg/mL in test [1] (K562, 48 h) and 0.0301 µg/mL in test [2]. The “TI (therapeutic index)” value in test [2] was found to be 193.

In the case of `CCCCCCCCCCCC1=NC(=Cc2[nH]c(-c3ccc[nH]3)cc2OC)C=C1.Cl` [UP, 4-methoxy-5-[(5-undecyl-2H-pyrrol-2-ylidene)methyl]-2,2'-bi-1H-pyrrole, hydrochloride, reference compound], in test [1] (K562, 48 h), the IC50 was 0.106 µg/mL. Further, in test [2], the IC50 was determined as 0.0029 µg/mL and the “TI (therapeutic index)” value was found to be 36.
